Source: a melting point compilation (Tetko et al.; mined from patent text by program, amines drawn as free bases though some values may be those of a salt)

Compound	melting point
CC(C)c1cc(Cl)cc(C(C)C)c1NC(=O)NS(=O)(=O)c1cccc(S(N)(=O)=O)c1	172 to 177 °C
CC(CNc1nc2ccccc2o1)C(=O)NCCCN(C)Cc1ccc(Cl)c(Cl)c1 (stereo unspecified)	134 to 135 °C
CC(ON=c1c2nccc3cccc(c32)n2cccc12)C(=O)O (stereo unspecified)	225 °C
CON(C)C(=O)c1ccc(-n2ccnc2)nc1	69 to 70 °C
Cc1nnc2ccc(-c3cccc(N(C)C(=O)C4CCC4)c3)nn12	171 to 173 °C
CNC(=O)C(Cc1ccc(OC)cc1)NC(=O)C(C)(CC(C)C)c1ccc(OC)cc1SCc1ccc(OC)cc1 (stereo unspecified)	150 to 158 °C
O=C(O)c1cccc(COc2cccc(OCc3ccc4ccccc4n3)c2)c1	149 to 151 °C
Cc1ccc(C)n1-c1cc(F)cc(F)c1	55 to 56 °C
CC=C1CCC2C3CCC4CC(O)CCC4(C)C3C(N)CC12C (stereo unspecified)	118 to 125 °C
CC(=N)c1ccccc1O	137 to 139 °C
O=C1CN(CCCBr)Oc2ccccc21	90 to 92 °C
COc1cc2nc(Cl)nc(N)c2c(OC)c1OC	138 to 140 °C
O=C(NCc1ncc(C(F)(F)F)cc1Cl)c1ccccc1C(F)(F)F	127 to 130 °C
CCCCCCCCCCCCCCCCCCCCCCCCCCCCOC(=O)c1cccnc1	65 to 70 °C
CCCc1ccnc2c(=O)[nH]c(-c3cc(S(=O)(=O)N4CCC(C(=O)OCC)CC4)ccc3OCC)nc12	204 to 205 °C
Brc1cc(Br)c(COCc2cc(Br)c(Br)cc2Br)cc1Br	162 to 164 °C
CC(C)c1ccc(-c2cnc(-c3cccc(C(=O)O)c3)[nH]2)cc1	296 to 298 °C
COC(=O)CCCc1cc2nc(Cl)ccc2n1S(=O)(=O)c1ccc(N(C)C)cc1	188 °C
C#Cc1cnc(C)c(O)c1CO	170 to 171 °C
CS(=O)c1nsc(Cl)n1 (stereo unspecified)	72 °C
CN(C)C1(c2ccccc2Cl)C(=O)N(Cc2ccc([N+](=O)[O-])cc2)c2ccc(Cl)cc21 (stereo unspecified)	189 to 193 °C

Compound	melting point
O=C(Oc1ccccc1)OC1C2=C(OCCS2)C(=O)N1c1ccc2ccc(Cl)nc2n1 (stereo unspecified)	270 °C
CCOC(=O)c1cc(-c2nnn(C)n2)c(-c2ccc(F)cc2)s1	108 to 110 °C
CCCc1ccc2c(c1CCC(=O)O)CCC(NS(=O)(=O)c1ccc(Cl)cc1)C2 (stereo unspecified)	165 to 167 °C
CCOC(=O)CC(C)(C)CC(=O)C1CC2=C(CC(C)(C)CC2)N(C2CCCCC2)C1 (stereo unspecified)	44 to 46 °C
O=c1c2ccccc2c2cnn(-c3ccccc3)c2n1CCCl	157 to 160 °C
C=Cc1nc(C(=O)OC)c(Cl)c(N)c1F	68 to 71 °C
COc1cc(CCC(=O)O)cc(I)c1O	96 to 97 °C
CC(C)c1nsc(N2CCN(C(=O)Nc3noc4ccccc34)CC2)n1	178 to 179 °C
CCOC(=O)c1cccc(-n2c(C)nc3cnccc32)c1	120 to 121 °C
Cc1cnc(N2CCC(c3ccc([N+](=O)[O-])cc3)CC2)n1C	178 to 179 °C
CC(C)c1cc(S(=O)(=O)c2c(Br)cc(CC(=O)O)cc2Br)ccc1O	171 to 172 °C
CC1(C)OCC(C(CS(=O)(=O)c2ccc(-c3ccc(C(F)(F)F)cc3)cc2)N(O)C=O)O1 (stereo unspecified)	204 to 205 °C
c1cnc(C2CC(c3cnccn3)CC(c3cnccn3)C2)cn1 (stereo unspecified)	122 to 124 °C
Nc1ncc(CCCc2cccc3ccccc23)c(N)n1	179 to 181 °C
Cc1nnc(SCc2ccccc2)s1	60 to 63 °C
O=C(NC1CCN(CC23CC(c4ccccc42)c2ccccc23)CC1)NC1CCCCO1 (stereo unspecified)	211 to 212 °C
Cc1cccc(C(O)CSC(=S)Nc2ccc(Cl)cn2)c1 (stereo unspecified)	122 °C
CC(=S)NCC1CN(c2ccc(-n3cnc(Cn4ccnc4)c3)c(F)c2)C(=O)O1 (stereo unspecified)	160 to 162 °C
CC(CC(=O)O)CC(=O)N(c1ccccc1)c1cc(C(C)(C)C)c(O)c(C(C)(C)C)c1 (stereo unspecified)	153 to 155 °C
CCCc1cc(O)nc(C(Cl)(Cl)Cl)n1	107 to 110 °C
